According to publication PMC3420359 (Journal of computer-aided molecular design, 2011):

Columns and labels:
[1] = target: rTRPV1 WT (Rattus norvegicus, UniProt O35433); assay: biochemical; assay type: binding
[2] = target: rTRPV1 T550I (Rattus norvegicus, UniProt O35433, T550I); assay: biochemical; assay type: binding
[3] = target: rTRPV1 Y511F (Rattus norvegicus, UniProt O35433, Y511F); assay: biochemical; assay type: binding
[4] = target: rTRPV1 T550S (Rattus norvegicus, UniProt O35433, T550S); assay: biochemical; assay type: binding
Sequence of rTRPV1 T550S (O35433 whole entry T550S): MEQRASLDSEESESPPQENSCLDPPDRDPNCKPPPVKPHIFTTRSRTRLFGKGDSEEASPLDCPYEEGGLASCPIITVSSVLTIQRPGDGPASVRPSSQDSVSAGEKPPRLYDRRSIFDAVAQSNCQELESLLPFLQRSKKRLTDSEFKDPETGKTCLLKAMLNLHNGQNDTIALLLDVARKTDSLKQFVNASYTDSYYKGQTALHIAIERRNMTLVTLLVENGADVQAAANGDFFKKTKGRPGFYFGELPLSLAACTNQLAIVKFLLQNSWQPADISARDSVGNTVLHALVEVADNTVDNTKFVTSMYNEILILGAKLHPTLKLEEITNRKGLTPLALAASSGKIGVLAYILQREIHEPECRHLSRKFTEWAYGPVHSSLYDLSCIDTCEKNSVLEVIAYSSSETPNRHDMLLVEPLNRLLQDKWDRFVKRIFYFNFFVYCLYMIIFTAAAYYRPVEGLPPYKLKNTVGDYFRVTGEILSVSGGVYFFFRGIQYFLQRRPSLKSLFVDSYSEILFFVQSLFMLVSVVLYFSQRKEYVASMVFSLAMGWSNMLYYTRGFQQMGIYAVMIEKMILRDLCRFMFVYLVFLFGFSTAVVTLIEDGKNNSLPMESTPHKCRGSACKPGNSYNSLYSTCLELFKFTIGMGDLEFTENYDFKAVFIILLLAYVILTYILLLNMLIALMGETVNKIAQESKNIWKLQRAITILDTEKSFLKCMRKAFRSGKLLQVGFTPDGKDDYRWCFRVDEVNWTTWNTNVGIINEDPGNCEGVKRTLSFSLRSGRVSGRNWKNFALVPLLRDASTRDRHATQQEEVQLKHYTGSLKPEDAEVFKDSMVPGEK

[5] = target: rTRPV1 M547L (Rattus norvegicus, UniProt O35433, M547L); assay: biochemical; assay type: binding
Sequence of rTRPV1 M547L (O35433 whole entry M547L): as the sequence (O35433 whole entry T550S) above, with M547L, S550T counted along it

[6] = target: rTRPV1 T550A (Rattus norvegicus, UniProt O35433, T550A); assay: biochemical; assay type: binding
Sequence of rTRPV1 T550A (O35433 whole entry T550A): as the sequence (O35433 whole entry T550S) above, with S550A counted along it

[7] = target: TRPV1; conditions: cited from earlier work

Sequence of rTRPV1 WT (O35433 whole entry): as the sequence (O35433 whole entry T550S) above, with S550T counted along it
Sequence of rTRPV1 T550I (O35433 whole entry T550I): as the sequence (O35433 whole entry T550S) above, with S550I counted along it
Sequence of rTRPV1 Y511F (O35433 whole entry Y511F): as the sequence (O35433 whole entry T550S) above, with Y511F, S550T counted along it

**Q.** Which Kd [1] does the source give for `C=C(C)[C@]12C[C@@H](C)[C@@]34O[C@](Cc5ccccc5)(O[C@@H]1[C@@H]3C=C(COC(=O)Cc1ccc(O)c(OC)c1)C[C@]1(O)C(=O)C(C)=C[C@@H]41)O2` [RTX, resiniferatoxin] here?
**A.** 0.203 ± 0.02 nM

**Q.** And the Maximal binding capacity [1]?
**A.** 6400 fmol/mg protein

**Q.** And the Ratio [1]?
**A.** 1.0

**Q.** What about the Kd [2] of the same compound?
**A.** 4.16 ± 0.82 nM

**Q.** And the Kd [3]?
**A.** 0.79 ± 0.13 nM

**Q.** And the Kd [4]?
**A.** 0.233 ± 0.022 nM

**Q.** And the Kd [5]?
**A.** 2.38 ± 0.24 nM

**Q.** What about the Kd [6] of the same compound?
**A.** 0.417 ± 0.062 nM

**Q.** For `COc1cc(CNC(=S)NCC(COC(=O)C(C)(C)C)Cc2ccc(C(C)(C)C)cc2)ccc1O` (stereo not drawn) [sRTX, N-{3-pivaloyloxy-2-(4-t-butylbenzyl)propyl}-N′-(4-hydroxyl-3-methoxybenzyl)thiourea], which Ki [7] is on record?
**A.** 11 nM
